Reference: patent US8952024B2, “Herbicidal pyrimidone derivatives” (E I du Pont de Nemours and Company, priority 2009, dated 2015)

Assays:
Format in all cases: in vivo
[1] = test system: barnyardgrass (Echinochloa crus-galli); assay: Test A pre-/postemergence plant response; settings: for Barnyardgrass plant response rating: visual injury, 0 to 100 scale (0 no effect, 100 complete control), approx. ten days
How it was run: (§1)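 Pre: directed soil spray on seeded loam/sand blend. Post: same formulation (non-phytotoxic solvent + surfactant) on 2–10 cm plants, 1–2 leaf stage. Greenhouse ~10 d; visual injury score 0–100 vs untreated.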

corn (Zea mays) = assay: Test A pre-/postemergence plant response; settings: for Corn plant response rating: visual injury, 0 to 100 scale (0 no effect, 100 complete control), approx. ten days
How it was run: as §1

[2] = test system: giant foxtail (Setaria faberii); assay: Test A pre-/postemergence plant response; settings: for Foxtail, Giant plant response rating: visual injury, 0 to 100 scale (0 no effect, 100 complete control), approx. ten days
How it was run: as §1

[3] = test system: large crabgrass (Digitaria sanguinalis); assay: Test A pre-/postemergence plant response; settings: for Crabgrass, Large plant response rating: visual injury, 0 to 100 scale (0 no effect, 100 complete control), approx. ten days
How it was run: as §1

[4] = test system: morningglory (Ipomoea spp.); assay: Test A pre-/postemergence plant response; settings: for Morningglory plant response rating: visual injury, 0 to 100 scale (0 no effect, 100 complete control), approx. ten days
How it was run: as §1

[5] = test system: pigweed (Amaranthus retroflexus); assay: Test A pre-/postemergence plant response; settings: for Pigweed plant response rating: visual injury, 0 to 100 scale (0 no effect, 100 complete control), approx. ten days
How it was run: as §1

[6] = test system: velvetleaf (Abutilon theophrasti); assay: Test A pre-/postemergence plant response; settings: for Velvetleaf plant response rating: visual injury, 0 to 100 scale (0 no effect, 100 complete control), approx. ten days
How it was run: as §1

[7] = test system: wheat (Triticum aestivum); assay: Test A pre-/postemergence plant response; settings: for Wheat plant response rating: visual injury, 0 to 100 scale (0 no effect, 100 complete control), approx. ten days
How it was run: as §1

[8] = test system: barnyardgrass (Echinochloa crus-galli); assay: Test B flooded paddy test; settings: for Plant response rating, Flood, Barnyardgrass: 250 g ai/ha, flooded paddy test, visual rating on 0 to 100 scale (0 no effect, 100 complete control) after 13 to 15 days; for Plant response rating, Barnyardgrass: Flood (flooded paddy test), 13 to 15 days; for Barnyardgrass plant response rating: Flood, 31 g ai/ha, scale 0 to 100 (0 no effect, 100 complete control)
How it was run: (§2)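 Greenhouse-held for 13 to 15 days, treated pots were compared visually with controls and scored 0–100 (0, no effect). Treatment had been made into paddy water kept at 3 cm above the soil, with plants at the 2-leaf stage.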

[9] = test system: ducksalad (Heteranthera limosa); assay: Test B flooded paddy test; settings: for Plant response rating, Flood, Ducksalad: 250 g ai/ha, flooded paddy test, visual rating on 0 to 100 scale (0 no effect, 100 complete control) after 13 to 15 days; for Plant response rating, Ducksalad: Flood (flooded paddy test), 13 to 15 days; for Ducksalad plant response rating: Flood, 31 g ai/ha, scale 0 to 100 (0 no effect, 100 complete control)
How it was run: as §2

rice (Oryza sativa) = assay: Test B flooded paddy test; settings: for Plant response rating, Flood, Rice: 250 g ai/ha, flooded paddy test, visual rating on 0 to 100 scale (0 no effect, 100 complete control) after 13 to 15 days; for Plant response rating, Rice: Flood (flooded paddy test), 13 to 15 days; for Rice plant response rating: Flood, 31 g ai/ha, scale 0 to 100 (0 no effect, 100 complete control)
How it was run: as §2

[10] = test system: umbrella sedge (Cyperus difformis); assay: Test B flooded paddy test; settings: for Plant response rating, Flood, Sedge, Umbrella: 250 g ai/ha, flooded paddy test, visual rating on 0 to 100 scale (0 no effect, 100 complete control) after 13 to 15 days; for Plant response rating, Sedge, Umbrella: Flood (flooded paddy test), 13 to 15 days; for Sedge, Umbrella plant response rating: Flood, 31 g ai/ha, scale 0 to 100 (0 no effect, 100 complete control)
How it was run: as §2

[11] = Postemergence, 125 g ai/ha, 0 to 100 scale where 0 is no effect and 100 is complete control
[12] = Preemergence, 125 g ai/ha, 0 to 100 scale, 0 = no effect, 100 = complete control
[13] = Preemergence, 500 g ai/ha, 0 to 100 scale, 0 = no effect, 100 = complete control
[14] = 62 g ai/ha, scale of 0 to 100 where 0 is no effect and 100 is complete control
[15] = 125 g ai/ha, scale 0 to 100, 0 is no effect, 100 is complete control

In the case of `CCCCn1c(-c2cccc(F)c2)ncc(C(=O)C2=C(O)C3CCC(C3)C2=O)c1=O` (stereo not drawn) [Compound 237], the “Plant response rating, Barnyardgrass” value [1, 11] was 100, the “Barnyardgrass plant response rating” value ([1]; Postemergence, 500 g ai/ha) was 100 and the “Plant response rating, Barnyardgrass” value [1, 12] was 20. The “Plant response rating, Barnyardgrass” value [1, 13] was 90, the “Plant response rating, Corn” value (corn (Zea mays); [11]) was 40 and the “Corn plant response rating” value (corn (Zea mays); Postemergence, 500 g ai/ha) was 80. For the same molecule, the “Plant response rating, Corn” value (corn (Zea mays); [12]) was 0, the “Plant response rating, Corn” value (corn (Zea mays); [13]) was 50 and the “Plant response rating, Foxtail, Giant” value [2, 11] was 90. For the same molecule, the “Foxtail, Giant plant response rating” value ([2]; Postemergence, 500 g ai/ha) was 100, the “Plant response rating, Foxtail, Giant” value [2, 12] was 40 and the “Plant response rating, Foxtail, Giant” value [2, 13] was 90. The “Plant response rating, Crabgrass, Large” value [3, 11] was 80, the “Crabgrass, Large plant response rating” value ([3]; Postemergence, 500 g ai/ha) was 100 and the “Plant response rating, Crabgrass, Large” value [3, 12] was 40. The “Plant response rating, Crabgrass, Large” value [3, 13] was 100, the “Plant response rating, Morningglory” value [4, 11] was 100 and the “Morningglory plant response rating” value ([4]; Postemergence, 500 g ai/ha) was 100. For the same molecule, the “Plant response rating, Morningglory” value [4, 12] was 10, the “Plant response rating, Morningglory” value [4, 13] was 80 and the “Plant response rating, Pigweed” value [5, 11] was 90. The “Pigweed plant response rating” value ([5]; Postemergence, 500 g ai/ha) was 100, the “Plant response rating, Pigweed” value [5, 12] was 30 and the “Plant response rating, Pigweed” value [5, 13] was 100. The “Plant response rating, Velvetleaf” value [6, 11] was 100, the “Velvetleaf plant response rating” value ([6]; Postemergence, 500 g ai/ha) was 100 and the “Plant response rating, Velvetleaf” value [6, 12] was 80. For the same molecule, the “Plant response rating, Velvetleaf” value [6, 13] was 100, the “Plant response rating, Wheat” value [7, 11] was 20 and the “Wheat plant response rating” value ([7]; Postemergence, 500 g ai/ha) was 70. For the same molecule, the “Plant response rating, Wheat” value [7, 12] was 0, the “Plant response rating, Wheat” value [7, 13] was 30 and the “Plant response rating, Flood, Barnyardgrass” value [8] was 30. For the same molecule, the “Plant response rating, Barnyardgrass” value [8, 14] was 0, the “Plant response rating, Barnyardgrass” value [8, 15] was 0 and the “Barnyardgrass plant response rating” value [8] was 0. For the same molecule, the “Plant response rating, Flood, Ducksalad” value [9] was 100, the “Plant response rating, Ducksalad” value [9, 14] was 65 and the “Plant response rating, Ducksalad” value [9, 15] was 90. The “Ducksalad plant response rating” value [9] was 0, the “Plant response rating, Flood, Rice” value (rice (Oryza sativa)) was 45 and the “Plant response rating, Rice” value (rice (Oryza sativa); [14]) was 0. The “Plant response rating, Rice” value (rice (Oryza sativa); [15]) was 0, the “Rice plant response rating” value (rice (Oryza sativa)) was 0 and the “Plant response rating, Flood, Sedge, Umbrella” value [10] was 100. The “Plant response rating, Sedge, Umbrella” value [10, 14] was 45, the “Plant response rating, Sedge, Umbrella” value [10, 15] was 55 and the “Sedge, Umbrella plant response rating” value [10] was 0.

In the case of `COCCCn1c(-c2cccc(F)c2)ncc(C(=O)C2=C(O)C3CCC(C3)C2=O)c1=O` (stereo not drawn) [Compound 238], the “Plant response rating, Barnyardgrass” value [1, 11] was 100, the “Barnyardgrass plant response rating” value ([1]; Postemergence, 500 g ai/ha) was 100 and the “Plant response rating, Barnyardgrass” value [1, 12] was 70. For the same molecule, the “Plant response rating, Barnyardgrass” value [1, 13] was 100, the “Plant response rating, Corn” value (corn (Zea mays); [11]) was 40 and the “Corn plant response rating” value (corn (Zea mays); Postemergence, 500 g ai/ha) was 80. The “Plant response rating, Corn” value (corn (Zea mays); [12]) was 0, the “Plant response rating, Corn” value (corn (Zea mays); [13]) was 50 and the “Plant response rating, Foxtail, Giant” value [2, 11] was 90. For the same molecule, the “Foxtail, Giant plant response rating” value ([2]; Postemergence, 500 g ai/ha) was 100, the “Plant response rating, Foxtail, Giant” value [2, 12] was 50 and the “Plant response rating, Foxtail, Giant” value [2, 13] was 90. The “Plant response rating, Crabgrass, Large” value [3, 11] was 90, the “Crabgrass, Large plant response rating” value ([3]; Postemergence, 500 g ai/ha) was 100 and the “Plant response rating, Crabgrass, Large” value [3, 12] was 90. The “Plant response rating, Crabgrass, Large” value [3, 13] was 100, the “Plant response rating, Morningglory” value [4, 11] was 100 and the “Morningglory plant response rating” value ([4]; Postemergence, 500 g ai/ha) was 100. The “Plant response rating, Morningglory” value [4, 12] was 40, the “Plant response rating, Morningglory” value [4, 13] was 90 and the “Plant response rating, Pigweed” value [5, 11] was 100. For the same molecule, the “Pigweed plant response rating” value ([5]; Postemergence, 500 g ai/ha) was 100, the “Plant response rating, Pigweed” value [5, 12] was 100 and the “Plant response rating, Pigweed” value [5, 13] was 100. The “Plant response rating, Velvetleaf” value [6, 11] was 100, the “Velvetleaf plant response rating” value ([6]; Postemergence, 500 g ai/ha) was 100 and the “Plant response rating, Velvetleaf” value [6, 12] was 90. For the same molecule, the “Plant response rating, Velvetleaf” value [6, 13] was 100, the “Plant response rating, Wheat” value [7, 11] was 50 and the “Wheat plant response rating” value ([7]; Postemergence, 500 g ai/ha) was 80. The “Plant response rating, Wheat” value [7, 12] was 0, the “Plant response rating, Wheat” value [7, 13] was 40 and the “Plant response rating, Flood, Barnyardgrass” value [8] was 40. For the same molecule, the “Plant response rating, Barnyardgrass” value [8, 14] was 0, the “Plant response rating, Barnyardgrass” value [8, 15] was 30 and the “Barnyardgrass plant response rating” value [8] was 0. For the same molecule, the “Plant response rating, Flood, Ducksalad” value [9] was 100, the “Plant response rating, Ducksalad” value [9, 14] was 40 and the “Plant response rating, Ducksalad” value [9, 15] was 80. The “Ducksalad plant response rating” value [9] was 0, the “Plant response rating, Flood, Rice” value (rice (Oryza sativa)) was 0 and the “Plant response rating, Rice” value (rice (Oryza sativa); [14]) was 0. The “Plant response rating, Rice” value (rice (Oryza sativa); [15]) was 0, the “Rice plant response rating” value (rice (Oryza sativa)) was 0 and the “Plant response rating, Flood, Sedge, Umbrella” value [10] was 80. For the same molecule, the “Plant response rating, Sedge, Umbrella” value [10, 14] was 0, the “Plant response rating, Sedge, Umbrella” value [10, 15] was 65 and the “Sedge, Umbrella plant response rating” value [10] was 0.
